Results from US10471060B2, “Amino pyrimidine compounds useful as SSAO inhibitors” (Eli Lilly and Company, priority 2017, dated 2019).

Assays:
SSAO = SSAO Target Engagement: residual SSAO activity in rat plasma and liver after dosing; assay type: in vivo; conditions: for SSAO Activity (%) Liver 24 hours / SSAO Activity (%) Plasma 2 hours / SSAO Activity (%) Plasma 24 hours: mean ± SEM, n = 6
Description: The SSAO activity in rat plasma and liver tissues are measured using the MAO-Glo™ assay kit from Promega (V1402). The residual SSAO activity in rats after compound treatment is estimated by measuring the total amine oxidase activity in plasma or liver lysates that are insensitive to the presence of the MAO inhibitor Clogyline and Pargyline. Rats are administered the compound of Example 1 at the doses of 15, 3, 0.6, 0.12, 0.025, 0.005 mg/kg. The control group is administered with the same volume (2 ml/kg) of the dosing vehicle (hydroxyethyl cellulose 1% w/v, 0.25% Tween 80). Plasma and liver at 2 or 24 hrs post compound treatment are harvested and stored at −78° C. until analysis. Tissue lysates are prepared by homogenization in a lysis buffer (20 mM HEPES, pH 7.4, 150 mM NaCl, 1 mM EDTA, 1 mM EGTA, 1% Triton X-100 and 1× Roche Complete protease inhibitor tablet). Tissue particles are removed by centrifugation at 12,000 rpm at 4° C. for 30 min. 40 μl of plasma or liver lysates is incubated with Clogyline (10 μM) and Pargyline (10 μM) for 20 min. at room temperature before the addition of the luminogenic substrate (50 μM) for 60 min. The product generated is quantified according to the manufacture's procedure. The fraction of activity that is insensitive to the presence of the MAO inhibitors is used as the surrogate for the residual SSAO activity. The compound of Example 1 is evaluated in the protocol essentially as described above administered at various doses.

recombinant hSSAO = molecular target: T1, recombinant hSSAO (Homo sapiens, UniProt Q16853); assay: SSAO/VAP-1 in vitro amine oxidase activity, MAO-Glo assay; assay type: biochemical; conditions: mean±standard deviation, n=5; substrate 10 μM, pH 7.4; read-out: hSSAO inhibition IC50
T1 sequence (Q16853 1-763): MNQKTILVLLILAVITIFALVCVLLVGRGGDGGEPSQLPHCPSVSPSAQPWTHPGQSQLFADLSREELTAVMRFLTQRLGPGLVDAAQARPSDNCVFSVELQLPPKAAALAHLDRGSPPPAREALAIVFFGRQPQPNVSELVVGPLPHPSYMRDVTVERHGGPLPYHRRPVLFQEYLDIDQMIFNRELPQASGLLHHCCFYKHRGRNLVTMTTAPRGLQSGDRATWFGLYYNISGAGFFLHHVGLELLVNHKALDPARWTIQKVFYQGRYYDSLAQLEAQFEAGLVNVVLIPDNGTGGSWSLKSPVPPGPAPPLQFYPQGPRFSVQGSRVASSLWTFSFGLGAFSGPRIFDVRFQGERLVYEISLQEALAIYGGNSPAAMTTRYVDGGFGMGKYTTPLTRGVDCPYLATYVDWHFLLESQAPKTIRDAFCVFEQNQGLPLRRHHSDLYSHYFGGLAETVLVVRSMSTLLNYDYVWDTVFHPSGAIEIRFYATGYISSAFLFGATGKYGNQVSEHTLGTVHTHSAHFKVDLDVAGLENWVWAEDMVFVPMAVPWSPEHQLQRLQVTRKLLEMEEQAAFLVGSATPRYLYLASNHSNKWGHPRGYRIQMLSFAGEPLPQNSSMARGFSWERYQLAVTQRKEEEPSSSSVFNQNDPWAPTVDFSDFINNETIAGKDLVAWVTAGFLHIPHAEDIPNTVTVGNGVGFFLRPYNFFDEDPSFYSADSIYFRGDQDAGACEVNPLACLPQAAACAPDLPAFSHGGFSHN
Description: Amine oxidase activity of recombinant hSSAO, hMAOa, and hMAOb isoforms are measured using the MAO-Glo™ assay kit from Promega (V1402). Test compounds (with DMSO as vehicle, 0.5% v/v for SSAO) and the enzyme are incubated for 10 mins at room temperature before the addition of the luminogenic substrate. The substrate concentration is 10 μM for human recombinant SSAO. The assays are conducted in a pH 7.4 buffer (50 mM HEPES, 120 mM NaCl, 5 mM KCl, 2 mM CaCl2, 1.4 mM MgCl2, 0.001% Tween-20) in a well-plate. Oxidation of the substrate is conducted for 2 hrs before the addition of detecting reagent according the manufacture's protocol. The IC50 value of the tested compounds is calculated by fitting the dose response curve using a 4-parameter non-linear regression routine.

CN1CCC2(CCN(c3ncc(OC/C(=C/F)CN)cn3)CC2)C1=O.Cl.Cl [Example 1, 8-[5-[(E)-2-(Aminomethyl)-3-fluoro-allyloxy]pyrimidin-2-yl]-2-methyl-2,8-diazaspiro[4.5]decan-1-one Dihydrochloride]
SSAO Activity (%) Liver 24 hours (SSAO; dose 0.005 mg/kg): 79 ± 13%
SSAO Activity (%) Plasma 2 hours (SSAO; dose 0.005 mg/kg): 76 ± 3%
SSAO Activity (%) Plasma 24 hours (SSAO; dose 0.005 mg/kg): 81 ± 4%
SSAO Activity (%) Liver 24 hours (SSAO; dose 0.025 mg/kg): 59 ± 14%
SSAO Activity (%) Plasma 2 hours (SSAO; dose 0.025 mg/kg): 35 ± 4%
SSAO Activity (%) Plasma 24 hours (SSAO; dose 0.025 mg/kg): 67 ± 10%
SSAO Activity (%) Liver 24 hours (SSAO; dose 0.12 mg/kg): 28 ± 5%
SSAO Activity (%) Plasma 2 hours (SSAO; dose 0.12 mg/kg): 17 ± 1%
SSAO Activity (%) Plasma 24 hours (SSAO; dose 0.12 mg/kg): 39 ± 4%
SSAO Activity (%) Liver 24 hours (SSAO; dose 0.6 mg/kg): 24 ± 6%
SSAO Activity (%) Plasma 2 hours (SSAO; dose 0.6 mg/kg): 13.4 ± 2.4%
SSAO Activity (%) Plasma 24 hours (SSAO; dose 0.6 mg/kg): 31 ± 3%
SSAO Activity (%) Liver 24 hours (SSAO; dose 3 mg/kg): 6 ± 4%
SSAO Activity (%) Plasma 2 hours (SSAO; dose 3 mg/kg): 5.9 ± 1.6%
SSAO Activity (%) Plasma 24 hours (SSAO; dose 3 mg/kg): 19 ± 2%
SSAO Activity (%) Liver 24 hours (SSAO; dose 15 mg/kg): −0.63 ± 1.1%
SSAO Activity (%) Plasma 2 hours (SSAO; dose 15 mg/kg): 3.1 ± 0.9%
SSAO Activity (%) Plasma 24 hours (SSAO; dose 15 mg/kg): 14 ± 1%
inhibition of SSAO activity in rat plasma and liver tissue (in words) (SSAO; doses 0.005 to 15 mg/kg): dose-dependently inhibits SSAO activity
IC50 (recombinant hSSAO): 19.4 ± 5.68 nM
